For experiment [1], the target named is T1, GST-LXRβ ligand-binding domain (Homo sapiens, UniProt P55055).
T1 construct: amino acids 156-461; NP009052; made in house; host or cells: E. coli
T1 sequence (P55055 156-460 limits assumed): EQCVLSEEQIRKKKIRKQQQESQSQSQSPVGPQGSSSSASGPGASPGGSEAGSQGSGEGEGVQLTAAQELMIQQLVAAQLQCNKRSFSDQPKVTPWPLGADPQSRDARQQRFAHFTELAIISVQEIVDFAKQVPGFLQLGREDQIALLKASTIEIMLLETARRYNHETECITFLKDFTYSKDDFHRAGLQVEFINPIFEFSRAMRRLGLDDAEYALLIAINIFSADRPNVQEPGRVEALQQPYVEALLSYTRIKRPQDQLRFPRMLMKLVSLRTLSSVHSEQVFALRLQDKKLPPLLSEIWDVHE
Briefly: TR-FRETβ activity assay (NCoA3 coactivator peptide recruitment). The note with it: 1 μM 24(S)-25-epoxycholesterol prestimulation. It counts as biochemical. Here is the method:
Recombinant GST-LXRβ ligand-binding domain (LBD; amino acids 156-461; NP009052; SEQ ID NO:4) was expressed in E. coli and purified via gluthatione-sepharose affinity chromatography. N-terminally biotinylated NCoA3 coactivator peptide (SEQ ID NO:7) was chemically synthesized (Eurogentec). Assays were done in 384 well format (final assay volume of 25 μL/well) in a Tris/HCl buffer (pH 6.8) containing KCl, bovine serum albumin, Triton-X-100 and 1 μM 24(S)-25-epoxycholesterol as LXR-prestimulating agonist. Assay buffer was provided and test articles (potential LXR inverse agonists) were titrated to yield final assay concentrations of 50 μM, 16.7 μM, 5.6 μM, 1.9 μM, 0.6 μM, 0.2 μM, 0.07 μM, 0.02 μM, 0.007 μM, 0.002 μM with one vehicle control. Finally, a detection mix was added containing anti GST-Tb cryptate (CisBio; 610SAXLB) and Streptavidin-XL665 (CisBio; 610SAXLB) as fluorescent donor and acceptor, respectively, as well as the coactivator peptide and LXRβ-LBD protein (SEQ ID NO:4). The reaction was mixed thoroughly, equilibrated for 1 h at 4° C. and vicinity of LXRβ and coactivator peptide was detected by measurement of fluorescence in a VictorX4 multiplate reader (PerkinElmer Life Science) using 340 nm as excitation and 615 and 665 nm as emission wavelengths. Assays were performed in triplicates.
240 mM KCl, 1 μg/μL BSA, 0.002% Triton-X-100, […] anti GST-Tb cryptate, 2.5 ng/μL Streptavidin-XL665, coactivator peptide (400 nM), LXRβ protein (530 μg/mL, i.e. 76 nM).

Another experiment concerns the target T2, LXRβ (Homo sapiens, UniProt P55055).
T2 sequence (P55055 1-460): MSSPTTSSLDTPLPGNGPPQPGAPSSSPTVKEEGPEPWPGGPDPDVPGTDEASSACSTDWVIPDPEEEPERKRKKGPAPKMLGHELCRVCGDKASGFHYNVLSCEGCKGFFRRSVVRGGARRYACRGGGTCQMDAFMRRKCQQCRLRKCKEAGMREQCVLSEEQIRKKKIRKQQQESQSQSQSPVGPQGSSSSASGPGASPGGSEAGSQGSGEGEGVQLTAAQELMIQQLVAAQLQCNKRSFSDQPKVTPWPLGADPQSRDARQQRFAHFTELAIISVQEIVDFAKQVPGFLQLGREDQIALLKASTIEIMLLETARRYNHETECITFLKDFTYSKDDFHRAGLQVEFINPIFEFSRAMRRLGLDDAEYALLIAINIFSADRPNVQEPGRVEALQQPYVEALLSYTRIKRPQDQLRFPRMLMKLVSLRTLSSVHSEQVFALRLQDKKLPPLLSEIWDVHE
Briefly: LXR Gal4 reporter transient transfection assay (mammalian two-hybrid, HEK293), LXRβ. It counts as cell-based. The arrangement: LXRβ (amino acids 156-461); expressed in transfected cells; host or cells: HEK293. To be noted: full length (FL) LXRβ, HEK293; read-out: FL-M2H Gal4β. Here is the method:
LXRα and LXRβ activity status was determined via detection of interaction with coactivator and corepressor proteins in mammalian two-hybrid experiments (M2H). For this, via transient transfection the full length (FL) proteins of LXRα (amino acids 1-447; NP005684; SEQ ID NO:1) or LXRβ-(amino acids 1-461; NP009052; SEQ ID NO:2) or the ligand-binding domains (LBD) of LXRα (amino acids 155-447 SEQ ID NO:3) or LXRβ (amino acids 156-461; SEQ ID NO:4) were expressed from pCMV-AD (Stratagene) as fusions to the transcriptional activation domain of NFkB. As cofactors, domains of either the steroid receptor coactivator 1 (SRC1; amino acids 552-887; SEQ ID NO:5) or of the corepressor NCoR (amino acids 1906-2312; NP006302; SEQ ID NO:6) were expressed as fusions to the DNA binding domain of the yeast transcription factor GAL4 (from pCMV-BD; Stratagene). Interaction was monitored via activation of a coexpressed Firefly Luciferase Reporter gene under control of a promoter containing repetitive GAL4 response elements (vector pFRLuc; Stratagene). Transfection efficiency was controlled via cotransfection of constitutively active pRL-CMV Renilla reniformis luciferase reporter (Promega). HEK293 cells were grown in minimum essential medium (MEM) with 2 mM L-glutamine and Earle's balanced salt solution supplemented with 8.3% fetal bovine serum, 0.1 mM non-essential amino acids, 1 mM sodium pyruvate, at 37° C. in 5% CO2. 3.5×10^4 cells/well were plated in 96-well cell culture plates in growth medium supplemented with 8.3% fetal bovine serum for 16-20 h to ˜90% confluency. For transfection, medium was taken off and LXR and cofactor expressing plasmids as well as the reporter plasmids are added in 30 μL OPTIMEM/well including polyethylene-imine (PEI) as vehicle. Typical amounts of plasmids transfected/well: pCMV-AD-LXR (5 ng), pCMV-BD-cofactor (5 ng), pFR-Luc (100 ng), pRL-CMV (0.5 ng). Compound stocks were prepared in DMSO, prediluted in MEM to a total volume of 120 μL, and added 4 h after addition of the transfection mixture (final vehicle concentration not exceeding 0.2%). Cells were incubated for additional 16 h, lysed for 10 min in 1×Passive Lysis Buffer (Promega) and Firefly and Renilla luciferase activities were measured sequentially in the same cell extract using buffers containing D-luciferine and coelenterazine, respectively. Measurements of luminescence were done in a BMG-luminometer.
The potencies of Compound 21/3 and its analog, Compound pre-6/3, against LXRα and LXRβ were evaluated in biochemical binding assays, cellular mammalian two-hybrid (M2H) interaction assays evaluating nuclear receptor co-repressor (NCOR) recruitment, and cellular reporter assays evaluating transcriptional activity (Table 5).

Consider 19 compounds from patent US20260083704A1, “LXR MODULATORS WITH BICYCLIC CORE MOIETY FOR TREATING DYSLIPIDEMIAS” (OrsoBio, Inc., priority 2022, published 2026).

Each structure is given as a SMILES string.

In the case of `Cc1ccc(S(=O)(=O)n2c(-c3cccc(C4CC(C(=O)O)C4)c3)c(-c3ccsc3C#N)c3cc(F)ccc32)cc1` (stereo not shown) [3/39], the EC50 is 100 to 1000 nM in experiment [1] and less than 100 nM on LXRβ.

As to `N#Cc1sccc1-c1c(-c2cccc(-c3cc(F)c(C(=O)O)cc3Cl)c2)n(S(=O)(=O)c2ccc(C(F)F)cc2)c2ccc(F)cc12` [11/8], the EC50 (in experiment [1]; on LXRβ) was less than 100 nM throughout.

For `Cc1ccc(S(=O)(=O)n2c(-c3cccc(N4CC[C@@H](C(=O)O)C[C@H]4C)c3)c(-c3ccsc3C#N)c3cc(F)ccc32)cc1` [5/9], the figures for the EC50 (in experiment [1]; on LXRβ) were 100 to 1000 nM and less than 100 nM, respectively.

`O=C(O)c1ccc(-c2cccc(-c3c(-c4cn[nH]c4C(F)(F)F)c4cc(F)ccc4n3S(=O)(=O)c3ccc(C(F)F)cc3)c2)c(Cl)c1` [11/25]: the EC50 is 100 to 1000 nM in experiment [1] and less than 100 nM on LXRβ.

Take `O=C(O)c1ccc(-c2cccc(-c3c(-c4cccc5c4OCO5)c4cc(F)ccc4n3S(=O)(=O)c3ccc(C(F)F)cc3)c2)c(Cl)c1` [11/44]: the EC50 (in experiment [1]; at LXRβ) was less than 100 nM throughout.

For the compound `Cc1ccc(S(=O)(=O)n2c(-c3cccc(N4CC(C(=O)O)C4)c3)c(-c3ccsc3C#N)c3cc(F)ccc32)cc1` [3/32], the figures for the EC50 (in experiment [1]; on LXRβ) were 100 to 1000 nM and less than 100 nM, respectively.

On to `Cc1ccc(S(=O)(=O)n2c(-c3cccc(-c4ccc(C(=O)O)cc4Cl)c3)c(-c3cccc(C)c3C#N)c3cc(F)ccc32)cc1` [11/2], for which the EC50 (in experiment [1]; at LXRβ) was less than 100 nM in each case.

As to `Cc1ccc(S(=O)(=O)n2c(-c3cccc(C4CC4C(=O)O)c3)c(-c3ccsc3C#N)c3ncccc32)cc1` (stereo not shown) [Compound 4], the EC50 lay within 1000 to 10000 nM in experiment [1] and 100 to 1000 nM on LXRβ.

For `O=C(O)c1ccc(-c2cccc(-c3c(-c4ccccc4)c4cc(F)ccc4n3S(=O)(=O)c3ccc(C(F)F)cc3)c2)c(Cl)c1` [C11/39], the EC50 in experiment [1] is 100 to 1000 nM; at LXRβ, less than 100 nM.

In the case of `N#Cc1cccc(C#N)c1-c1c(-c2cccc(C34CCC(C(=O)O)(CC3)CC4)c2)n(S(=O)(=O)c2ccc(C(F)F)cc2)c2ccc(F)cc12` [11/58], the EC50 (in experiment [1]; on LXRβ) was less than 100 nM in each case.

Take `N#Cc1sccc1-c1c(-c2cccc(-c3cc(F)c(C(=O)O)cc3Cl)c2)n(S(=O)(=O)c2ccc(CF)cc2)c2ccc(F)cc12` [11/7]: the EC50 (in experiment [1]; at LXRβ) was less than 100 nM each time.

Turning to `COC(=O)C(C)(C)N(C)C(=O)C1CN(c2cccc(-c3c(-c4ccsc4C#N)c4cc(F)ccc4n3S(=O)(=O)c3ccc(C)cc3)c2)C1` [32/2], the EC50 (in experiment [1]; at LXRβ) was 100 to 1000 nM throughout.

As for `CC1CCN(S(=O)(=O)n2c(-c3cccc(N4CC(C(=O)O)C4)c3)c(-c3ccsc3C#N)c3cc(F)ccc32)CC1` [3/36], the EC50 in experiment [1] was in the range of 1000 to 10000 nM; on LXRβ, 100 to 1000 nM.

For `COC(=O)c1ccc(-c2cccc(-c3c(-c4c(C)cccc4C#N)c4cc(F)ccc4n3S(=O)(=O)c3ccc(C(F)F)cc3)c2)c(Cl)c1` [1/122], the EC50 is 100 to 1000 nM in experiment [1] and less than 100 nM at LXRβ.

For the compound `Cc1ccc(S(=O)(=O)n2c(-c3cccc(N4CC(C(=O)O)C4)c3)c(-c3ccsc3/C=N/O)c3cc(F)ccc32)cc1` [3/7], the values for the EC50 (in experiment [1]; on LXRβ) were 1000 to 10000 nM and less than 100 nM, respectively.

For `O=C(O)c1ccc(-c2cccc(-c3c(-c4c(C(F)F)cccc4C(F)F)c4cc(F)ccc4n3S(=O)(=O)c3ccc(C(F)F)cc3)c2)c(Cl)c1` [11/15], the EC50 (in experiment [1]; at LXRβ) was less than 100 nM in each case.

Regarding `Cc1ccc(S(=O)(=O)n2c(-c3cccc(C#CC(C)(C)C(=O)O)c3)c(-c3ccsc3C#N)c3cc(F)ccc32)cc1` [5/4], the EC50 was 1000 to 10000 nM in experiment [1] and less than 100 nM on LXRβ.

Take `N#Cc1cc(C(=O)O)ccc1-c1cccc(-c2c(-c3ccccc3C#N)c3cc(F)ccc3n2S(=O)(=O)c2ccc(C(F)F)cc2)c1` [11/30]: the EC50 (in experiment [1]; at LXRβ) was less than 100 nM throughout.

Regarding `CC(O)(C(=O)O)c1ccc(-c2cccc(-c3c(-c4c(C#N)cccc4C#N)c4cc(F)ccc4n3S(=O)(=O)c3ccc(C(F)F)cc3)c2)c(Cl)c1` (stereo not shown) [11/60], on LXRβ, the EC50 was less than 100 nM.
